In PMC9977316, “The kidney drug transporter OAT1 regulates gut microbiome–dependent host metabolism” (JCI Insight, 2023):

Columns and labels:
OAT1 [1] = molecular target: T1, OAT1 (Mus musculus, UniProt Q8VC69); test: Tc-99m MAG3 imaging and postmortem γ counts in Oat1-KO and WT mice; format: in vivo; conditions: WT vs Oat1-KO
T1 construct: from tissue; host or cells: living mice (kidney proximal tubule); Oat1-KO versus WT
T1 sequence (Q8VC69 1-545): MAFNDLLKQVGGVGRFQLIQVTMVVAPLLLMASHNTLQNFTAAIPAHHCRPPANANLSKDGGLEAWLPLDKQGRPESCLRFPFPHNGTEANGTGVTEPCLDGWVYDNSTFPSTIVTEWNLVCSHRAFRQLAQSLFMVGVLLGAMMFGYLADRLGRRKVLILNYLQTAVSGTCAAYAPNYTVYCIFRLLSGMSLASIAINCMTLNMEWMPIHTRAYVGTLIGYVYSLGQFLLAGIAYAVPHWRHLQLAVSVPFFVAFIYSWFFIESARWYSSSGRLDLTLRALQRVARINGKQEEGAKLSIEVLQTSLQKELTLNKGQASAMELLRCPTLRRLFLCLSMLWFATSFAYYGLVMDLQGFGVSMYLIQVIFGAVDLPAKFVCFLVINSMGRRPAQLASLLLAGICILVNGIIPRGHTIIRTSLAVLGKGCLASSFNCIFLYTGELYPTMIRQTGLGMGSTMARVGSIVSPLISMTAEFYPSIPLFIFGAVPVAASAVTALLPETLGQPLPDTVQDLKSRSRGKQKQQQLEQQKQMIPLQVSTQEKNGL
Protocol: Live-imaging experiments were performed with the In Vivo Imaging Shared Resource at the Moore’s Cancer Center at the UCSD. Mice were transported from the vivarium to the In Vivo Imaging Shared Resource. In total, 100 μCi of Tc-99m MAG3 was injected by tail vein into mice prior to imaging. Adult, male KO (n = 5) and WT mice (n = 5) were imaged in 5 separate pairs containing 1 KO mouse and 1 WT mouse each. Mice were initially weighed and anesthetized (2% isoflurane, 200 mL/min flow of O2). Mice were placed on their backs on the high-resolution γ imager (γ imager; BioSpace) fitted with a high-resolution, low-energy collimator. For 30 minutes, time-activity curves were collected from the kidneys, liver, and bladder. Following imaging, blood, urine, kidneys, liver, and spleen were isolated and weighed from each mouse for radioactive assessment using a γ counter.

OAT1 [2] = molecular target: T2, OAT1 (Homo sapiens, UniProt Q4U2R8); set-up: The full-length protein was expressed as GFP fusion in HEK293 cells to check for protein expression; GFP; FLAG (inferred from capture on anti-flag antibody beads); made in house; host or cells: HEK293 cells, third-generation lentiviral vector; conditions: cited from earlier work
T2 sequence (Q4U2R8 1-563): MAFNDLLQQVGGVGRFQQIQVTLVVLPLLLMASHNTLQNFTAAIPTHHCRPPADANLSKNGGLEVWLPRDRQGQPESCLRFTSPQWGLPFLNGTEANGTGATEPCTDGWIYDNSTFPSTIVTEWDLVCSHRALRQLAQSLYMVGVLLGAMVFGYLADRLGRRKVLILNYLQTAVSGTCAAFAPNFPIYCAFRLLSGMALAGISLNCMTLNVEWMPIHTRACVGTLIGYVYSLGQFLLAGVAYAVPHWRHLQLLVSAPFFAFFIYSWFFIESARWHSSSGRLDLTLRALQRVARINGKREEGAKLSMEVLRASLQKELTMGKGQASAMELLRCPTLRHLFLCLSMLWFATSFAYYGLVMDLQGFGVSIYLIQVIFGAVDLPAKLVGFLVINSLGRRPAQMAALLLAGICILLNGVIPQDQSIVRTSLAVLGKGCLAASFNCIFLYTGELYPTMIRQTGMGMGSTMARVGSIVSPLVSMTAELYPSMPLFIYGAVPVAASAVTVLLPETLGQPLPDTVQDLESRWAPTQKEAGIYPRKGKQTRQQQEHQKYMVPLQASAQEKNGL

Compound | bladder levels, postmortem γ counts scaled to weight (OAT1 [1]; 4 of 5 pairs) | blood levels, postmortem γ counts scaled to weight (OAT1 [1]; 4 of 5 pairs) | time to maximal bladder levels (OAT1 [1]; tail-vein injection, 30 minutes, γ camera) | In vitro cell–based transport assay (OAT1 [2])
Tc-99m mercaptoacetyl-triglycine [Tc-99m MAG3] | higher in the WT mice | higher in the KO mice | WT bladders reached their maximal levels of Tc-99m MAG3 more quickly than the Oat1-KO mice | –
NCCc1c[nH]c2ccc(O)cc12 [Serotonin] | – | – | – | × (17)
